Where two headings read alike, the source gives them in different places.
Legend:
[1] = Solubility in distilled water and normal saline, visual inspection and HPLC; format: physicochemical; conditions: for Aqueous solubility checked on HPLC: aqueous solution, analogs compared with MFA; for Aqueous solubility on visual inspection: analogs compared with parent MFA
From the text: The solubility of each molecular structure was checked in distilled water as well as in normal saline.

[2] = system: pilocarpine-induced seizure rats; assay: BBB permeability by contrast-enhanced MRI (Gd-DTPA) in rat seizure pre-clinical model; format: in vivo
Protocol: Structure (I), MFA-NIC, was assessed as a possible therapeutic in a rat seizure pre-clinical model. Assessments were conducted using Contrast-enhanced (CE) magnetic resonance (MR) imaging (MRI) and MR spectroscopy (MRS). The seizure model initially involved injection of pilocarpine (380 mg/kg i.p.) alone (Ikonomidou-Turski et al., 1988), however all rats undergoing this procedure died before MRS data could be obtained. A more recent model by Jeong et al. (2017) was adopted, where a lower dose of pilocarpine (25 mg/kg i.p.) was preceded by lithium chloride (127 mg/kg i.p.) 19 hours before, and scopolamine (2 mg/kg i.p.) 30 min. before, pilocarpine. Injection of pilocarpine induced status epilepticus about 20-30 min post-pilocarpine (Jeong et al., 2017). Pascente et al. (2016) also used lithium chloride 18 hours before pilocarpine. Scopolamine was also used by Behr et al. (2017) 30 m in before pilocarpine. Electroencephalography (EEG) was used in the Behr et al. study to confirm seizures.
A MRI contrast agent, Gd-DTPA (gadolinium diethylene triamine penta acetic acid) was used to establish if there was increased BBB permeability. […] Three brain regions were assessed: hippocampus, thalamus and cerebral cortex. […] This may be due to the variability in the change in MRI signal intensity in the seizure group, and the low number of rats per group. The smaller variability in the saline-treated controls was due to the large […] of n=25 (obtained from a previous study conducted in the Towner group). […] The saline-treated controls were used for all statistical comparisons.

[3] = pH 7.1; cited from earlier work
[4] = Stability study of MFA analogs in acetonitrile and distilled water, 1 day and 7 days, visual and HPLC; format: physicochemical; conditions: for Stability in acetonitrile and in distilled water up to 7 days: 4° C. and room temperature (~25° C.); for Stability 1 Day ACN 4° C. / Stability 7 Day ACN 4° C. / Stability 1 Day ACN RT / Stability 7 Day ACN RT: acetonitrile; for Stability 7 Day ACN 4° C. / Stability 7 Day ACN RT / Stability 7 Day DW 4° C. / Stability 7 Day DW RT: 7 days; for Stability 1 Day ACN RT / Stability 7 Day ACN RT / Stability 1 Day DW RT / Stability 7 Day DW RT: room temperature (~25° C.); for Stability 1 Day DW 4° C. / Stability 7 Day DW 4° C. / Stability 1 Day DW RT / Stability 7 Day DW RT: distilled water; for Stability in acetonitrile / Stability in distilled water after 1 day: after 1 day
From the text: Therapeutic agents stable after 1 day were subjected to a 7 day stability study.
FIG. 1 provides the HPLC chromatogram of MFA-NIC showing stability of the modified drug kept at room temperature on day seven. FIG. 2 provides the HPLC chromatogram of MFA-MeNIC showing stability of the modified drug kept at room temperature on day seven.

[5] = system: pilocarpine-induced seizure rats; assay: Brain metabolite levels by MR spectroscopy (ratios to Cho) in rat seizure pre-clinical model; format: in vivo
Protocol: Assessments were conducted using Contrast-enhanced (CE) magnetic resonance (MR) imaging (MRI) and MR spectroscopy (MRS). […] A more recent model by Jeong et al. (2017) was adopted, where a lower dose of pilocarpine (25 mg/kg i.p.) was preceded by lithium chloride (127 mg/kg i.p.) 19 hours before, and scopolamine (2 mg/kg i.p.) 30 min. before, pilocarpine. Injection of pilocarpine induced status epilepticus about 20-30 min post-pilocarpine (Jeong et al., 2017).
MRS was used to assess levels of brain metabolites, including N-acetyl aspartate (NAA), total creatine (Cr, total choline (Cho), taurine (Tau), glutamate (Glu) and myo-inositol (Myo-Ins). Cho was used as a normalization reference for all other metabolites. For the control group a total of 10 rats were assessed. For all other treatment groups n=5.

[6] = system: pilocarpine-induced seizure rats; assay: EEG of seizure episodes in rat seizure model; format: in vivo; conditions: preliminary data
[7] = cerebral cortex, 50 mg/kg via gavage
[8] = cerebral cortex, 200 mg/kg via gavage
[9] = distilled water, water, solvent DW (distilled water), read-out: Solubility after molecular weight correction factor
[10] = distilled water, water, solvent DW (distilled water), read-out: Solubility in NS and DW
[11] = normal saline, saline or isotonic, solvent NS (normal saline), read-out: Solubility after molecular weight correction factor
[12] = normal saline, saline or isotonic, solvent NS (normal saline), read-out: Solubility in NS and DW
[13] = 200 mg/kg dose, found most effective
[14] = central brain region (primarily hippocampus), 10 mg/kg via gavage

Compound	Stability in acetonitrile [4]	Aqueous solubility checked on HPLC [1]	Area (HPLC) ([1]; solvent DW (distilled water))	Area (HPLC) ([1]; solvent NS (normal saline))	Aqueous solubility on visual inspection ([1]; water)	BBB permeability vs saline-treated controls [2, 7]	BBB permeability vs saline-treated controls [2, 8]	solubility [1, 9]	solubility [1, 10]	solubility [1, 11]	solubility [1, 12]	Stability in acetonitrile and in distilled water up to 7 days [4]	Stability 1 Day ACN 4° C. [4]	Stability 7 Day ACN 4° C. [4]	Stability 1 Day ACN RT [4]	Stability 7 Day ACN RT [4]	Stability 1 Day DW 4° C. [4]	Stability 7 Day DW 4° C. [4]	Stability 1 Day DW RT [4]	Stability 7 Day DW RT [4]	further results
Cc1cccc(Nc2ccccc2C(=O)O)c1C [MFA, N-(2,3-Dimethylphenyl)anthranilic acid, reference compound]		No peak	No Peak	No Peak	insoluble	significant increase	significant increase														BBB permeability vs saline-treated controls ([2]; hippocampus, 50 mg/kg via gavage): significant increase; BBB permeability vs saline-treated controls ([2]; thalamus, 50 mg/kg via gavage): significant increase; BBB permeability vs saline-treated controls ([2]; thalamus, 200 mg/kg via gavage): significant increase; Water solubility [3]: 0.004%
Cc1cccc(Nc2ccccc2C(=O)OC[n+]2cccc(C(=O)N(C)C)c2)c1C [MFA-2MeNIC, MFA- N,N-Dimethylnicotinamide N-Methylnicotinamide]		much higher	9876828	18274457	significantly higher			180 µg/mL	390 µg/mL	330 µg/mL	720 µg/mL	stable	Stable	Stable	Stable	Stable	Stable	Stable	Stable	Stable	
CNC(=O)c1ccc[n+](COC(=O)c2ccccc2Nc2cccc(C)c2C)c1 [MFA-MeNIC, MFA- N-Methylnicotinamide]		much higher	10643970	13844823	significantly higher			200 µg/mL	460 µg/mL	270 µg/mL	600 µg/mL	stable	Stable	Stable	Stable	Stable	Stable	Stable	Stable	Stable	
Cc1cccc(Nc2ccccc2C(=O)OC[n+]2cccc(C(N)=O)c2)c1C [MFA-NIC, MFA-Nicotinamide]		much higher	6867539	2350506	significantly higher	significant increase	not significantly different	130 µg/mL	280 µg/mL	40 µg/mL	100 µg/mL	stable	Stable	Stable	Stable	Stable	Stable	Stable	Stable	Stable	Brain metabolite levels, overall effect [5, 13]: effective in restoring brain metabolite levels back to normal; Myo-Ins/Cho ratio vs control (non-treated, non-seizure) group [5, 14]: significant decrease; NAA/Cho ratio vs control (non-treated, non-seizure) group [5, 14]: significant decrease; BBB permeability, overall effect [2, 13]: effective in preventing an increase in BBB permeability; BBB permeability vs saline-treated controls ([2]; cerebral cortex, 10 mg/kg via gavage): not significantly different; BBB permeability vs saline-treated controls ([2]; hippocampus, all doses (10, 50 or 200 mg/kg via gavage)): None of the MFA-NIC (shown in FIGS. 4-11 as pro-MFA or pMFA)-treated rats were found to be significantly different; BBB permeability vs saline-treated controls ([2]; thalamus, all doses (10, 50 or 200 mg/kg via gavage)): None of the MFA-NIC (pro-MFA or pMFA)-treated rats were found to be significantly different; Level of seizure episodes (EEG) [6]: does reduce the level of seizure episodes

Now from value to compound, other results behind:

Stability in acetonitrile [4]	Compound	Aqueous solubility checked on HPLC [1]	Area (HPLC) ([1]; solvent DW (distilled water))	Area (HPLC) ([1]; solvent NS (normal saline))	Aqueous solubility on visual inspection ([1]; water)	BBB permeability vs saline-treated controls [2, 7]	BBB permeability vs saline-treated controls [2, 8]	solubility [1, 9]	solubility [1, 10]	solubility [1, 11]	solubility [1, 12]	Stability in acetonitrile and in distilled water up to 7 days [4]	Stability 1 Day ACN 4° C. [4]	Stability 7 Day ACN 4° C. [4]	Stability 1 Day ACN RT [4]	Stability 7 Day ACN RT [4]	Stability 1 Day DW 4° C. [4]	Stability 7 Day DW 4° C. [4]	Stability 1 Day DW RT [4]	Stability 7 Day DW RT [4]	further results
stable	Cc1cccc(Nc2ccccc2C(=O)OCOC(=O)c2ccc[n+](C)c2)c1C [MFA-MeNICA, MFA-N-methylnicotinic acid]												Stable		Stable						Stability in distilled water after 1 day [4]: unstable
not found to be stable	Cc1cccc(Nc2ccccc2C(=O)OCOC(=O)c2ccc[n+](COC(=O)NC(C)C)c2)c1C [MFA-PCA, MFA-Pyridinium, 3-carboxy-1-[N-(1-methylethyl)carbamic acid]]																				Stability in distilled water after 1 day [4]: not found to be stable
